# Where “and” joins values, the source holds several entries; their conditions need not be identical. Identical values can stand only once. Entries after “also recorded” stand apart in the source; their conditions may differ. No end group written: not given here. *: point of attachment. For = O=C*
# What was measured:
# [1] = Binding of complexes to heparin or sucrose octasulfate (dialysis, UV-Visible titration, solubilization)
# Protocol: UV-Visible spectrophotometric titration indicates maximum binding occurs at a molar ratio of 18:1 (iron-porphine:heparin).
# (a) To this resulting aqueous dispersion of complex is added beef lung heparin, to give final complex-to-heparin ratios of between 95:5 and 5:95 (by weight). […] This apparent solubilization is indicative of paired-ion binding between triethylenetetraamine-iron and heparin.
# (b) To the aqueous dispersion of triethylenetetraamine-iron complex is added sucrose octasulfate (SOS), to give final complex-to-SOS ratios of between 95:5 and 5:95 (by weight).
# [2] = Binding of active to dermatan sulfate carrier (dialysis retention, 500 MW cutoff); settings: for paired-ion binding of peptide to dermatan sulfate: ca. 60:40 (active to dermatan sulfate)
# Protocol: (§1) Multiple batches of Ferrioxamine:Dermatan Sulfate Agent have been prepared.
# Vincristine (Sigma Chemical Co., St. Louis) is dissolved in water and mixed with dermatan sulfate at ratios of between 90:10 and 30:70 (w/w) drug to dermatan sulfate.
# Amikacin, gentamicin and tobramycin (all obtained from Sigma Chemical Co., St. Louis) are dissolved in water and mixed with either dermatan sulfate (435 Type) or beef lung heparin (Hepar-Kabi-Pharmacia) at ratios of between 90:10 and 30:70 (w/w) drug to glycosaminoglycan.
# [3] = tested on: AT-1 prostate adenocarcinoma; assay: MRI contrast enhancement of AT-1 prostate adenocarcinoma; type: in vivo, Copenhagen rats
# Protocol: (§2) FIG. 14A, FIG. 14B, FIG. 14C and FIG. 14D show MRI 4.7 Tesla, T1-weighted images of Copenhagen rats with the AT-1 prostate tumor model (as in FIG. 13A, FIG. 13B, FIG. 13C and FIG. 13D), but rats are injected i.v. with Ferrioxamine Selective Contrast Agent, wherein the Active is non-covalently bound to Oversulfated Dermatan Sulfate, the Agent lyophilized and reconstituted with water just prior to administration at a concentration of 0.332 mmol/mL Fe(III) and administered at the usual dose of 0.155 mmol of Fe(III) per Kg.
# as §2, with “15A,” for “14A,”, “15B,” for “14B,”, “15C” for “14C”, “15D” for “14D”, “Chondroitin” for “Dermatan”
# as §2, with “16A,” for “14A,”, “16B,” for “14B,”, “16C” for “14C”, “16D” for “14D”, “a non-anticoagulant GAG, Heparan” for “Oversulfated Dermatan”
# FIG. 19A, FIG. 19B, FIG. 19C, FIG. 19D and FIG. 19E show T1-weighted images at 4.7 Tesla (TR/TE=250/8) of Copenhagen rats with syngeneic AT-1 prostate adenocarcinomas inoculated into previously prepared skin pouches [Hahn et al. (1993)], and imaged at diameters of 1.0-2.5 cm.
# Based on low anticoagulant activity, safety and projected site-localizationpotential, certain alternative glycosaminoglycan carriers and certain alternative physical forms of the resulting Selective MRI Contrast Agents are compared for their relative in vivo potencies of carrier-mediated tumor localization of bound Ferrioxamine. Because of its high spatial resolution and capacity to detect subtle quantitative differences in agent localization, the AT-1 prostate tumor model of Example 19 is used.
# [4] = comparison value; cited from earlier work
# [5] = tested on: syngeneic breast adenocarcinoma; assay: MRI contrast enhancement of breast adenocarcinoma inoculated in liver (and metastases); type: in vivo, Fisher 344 female rats; settings: 7 MPI, 0.155 mmol/Kg i.v.
# Excerpt: FIG. 2A, FIG. 2B, FIG. 3A, FIG. 3B, FIG. 4A, FIG. 4B, FIG. 4C, FIG. 4D and FIG. 8A, FIG. 8B and FIG. 8C show T1-weighted MRI images (TR/TE=800/45, 550/23 and 600/45) performed at 1.0 and 1.5 Tesla, before (Pre) and after (Post) intravenous (i.v.) injection of Ferrioxamine:Dermatan Sulfate Selective Paramagnetic Contrast Agent, prepared as in Examples 2 and 5, and injected i.v. at a Ferrioxamine dose of 0.155 mmol/Kg into Fisher 344 female rats, with syngeneic breast adenocarcinoma inoculated previously into the liver, such that tumor diameters at the time of imaging are between 1.0 cm and 2.5 cm.
# (§3) Tumors are not conspicuous on standard T1-weighted Precontrast images. […] The sustained intervals shown in FIG. 8A, FIG. 8B and FIG. 8C are much longer than those typically reported for Gd:DTPA dimeglumine contrast enhancement at body organ sites.
# T1-weighted MRI images (TR-TE=800/45) are performed at 1.0 Tesla, before (Pre) and after (Post) intravenous (i.v.) injection of Gd:MPD-DTPA:DS (DS=435 Type, Opocrin) at a dose of 0.155 mmol/kg into Fisher 344 female rats with syngeneic breast adenocarcinomas inoculated by trocar into the livers, as in Example 18 (above). A T2 scout image (TR/TE=2100/85) is performed in advance of the T1 image contrast series, in order to identify the approximate location(s) of tumor nodule(s) (FIG. 18A). […]
# [6] = T1 relaxivity (R1), IBM PC20 Minispectrometer / ICP-AA metal measurement; type: physicochemical
# Protocol: Batch quantities of the Fe(III) chelate of deferoxamine are prepared as follows. Deferoxamine mesylate (methanesulfonate) (Ciba-Geigy Limited, Basel, Switzerland), 390 g, is dissolved in pharmaceutical-grade water. Alternatively, the chloride salt of deferoxamine may be used. […] This final batch volume is adjusted as desired, typically to a final volume of 2600 mL. Any remaining trace amounts of unreacted Fe(O)OH are removed and the solution also made aseptic, by passing the supernatant through a 0.22 μm Millipore GV-type filter in a Class 100 laminar flow hood. The resulting batch is stored at 4° C. in an autoclaved, sealed glass container until further use (see Examples below). The final concentration of ferrioxamine (DFe) is determined once again by UV-Visible absorbance spectrophotometry at 430 nm.
# The pH is adjusted to 7.0 by addition of 1.0 N NaOH. […] In the case of gadolinium oxide, neutralization with 1.0 N NaOH is not needed. […] This precipitate is rewashed with ethanol and centrifuged (as above), washed with acetone plus centrifuged, and the collected precipitate dried over a stream of dry nitrogen.
# [7] = tested on: acute myocardial infarct; assay: MRI contrast enhancement of acute myocardial infarcts; type: in vivo, German Shepherd dogs; settings: 0.155 mmol/Kg
# Excerpt: FIG. 11A, FIG. 11B, FIG. 11C and FIG. 11D show T1-weighted MRI ECG-gated cardiovascular images performed at 0.5 Tesla, before (Pre) and after (Post) rapid intravenous (i.v.) infusion of Ferrioxamine:Dermatan Sulfate Selective Paramagnetic Contrast Agent prepared as in Examples 2 and 5, and injected i.v. at an Iron(III) dose of 0.155 mmol/Kg into German Shepherd dogs with acute, 90-min myocardial infarcts (ligature of proximal left anterior descending coronary artery) followed by reperfusion for ca. 90 minutes prior to contrast agent infusion.
# In these studies, infarct sizes and positions are documented by double dye infusion performed immediately after MRI imaging.
# [8] = tested on: syngeneic breast adenocarcinoma; assay: Special histologic iron stain of breast adenocarcinoma; type: in vivo, Fisher 344 female rats; settings: central tumor, 7-10 MPI
# Excerpt: FIG. 6. Special histologic stain (heated ferroferricyanide reaction) of formalin-fixed section of syngeneic breast adenocarcinoma excised from liver inoculation site of Fisher 344 female rats: […] Sulfate Selective MRI Contrast Agent.
# as §3
# [9] = tested on: antithrombin III; settings: cited from earlier work
# [10] = Gd(III) when chelated by DTPA; cited from earlier work
# [11] = tested on: syngeneic breast adenocarcinoma; settings: rat, in vivo, iv; cited from earlier work
# [12] = physchem; settings: water
# Excerpt: as §1
compound,measurement,setting,value
"5,10,15,20-tetrakis(1-methyl-4-pyridyl)-21H-23H-porphine [iron-porphine]",Binding of iron-porphine to heparin,[1],~100%
same,dialysis of iron-porphine alone,[1],nearly completely dialyzed
same,molar ratio at maximum binding (iron-porphine:heparin),[1],18:1
"N-formyl-met-leu-phe-lys (For-MLFK) [basic white-cell chemoattractant peptide, formulated with dermatan sulfate]",paired-ion binding of peptide to dermatan sulfate,[2],Strong paired-ion binding
same,fluorescence on binding to dermatan sulfate,"[2]; emission 518 nm, excitation 257 nm",fluorescence enhancement
CNC[C@H](O)[C@@H](O)[C@H](O)[C@H](O)CO.CNC[C@H](O)[C@@H](O)[C@H](O)[C@H](O)CO.O=C([O-])CN(CCN(CC(=O)[O-])CC(=O)O)CCN(CC(=O)[O-])CC(=O)O.[Gd+3] [Gd:DTPA dimeglumine],MRI contrast enhancement of AT-1 tumor,[3]; 7 MPI,the outer rim is not well delineated
same,MRI contrast enhancement of AT-1 tumor,[3]; 20 MPI,Marked early contrast fading occurs overall in the tumor
same,MRI contrast enhancement of AT-1 tumor,[3]; 40 MPI,enhancement is nearly reverted to background levels; also recorded: enhancement reverts to essentially background levels
same,MRI contrast enhancement of AT-1 tumor,[3]; 60 MPI,"no residual contrast, except for central cystic regions"
same,LD50,[4],4.0 mmol/kg
"arg-pro-pro-gly-phe-ser-pro-phe-arg (RPPGFSPFR; formulated with dermatan sulfate) [arginine bradykinin, basic peptide, formulated with dermatan sulfate]",paired-ion binding of peptide to dermatan sulfate,[2],Strong paired-ion binding
CC(=O)N([O-])CCCCCNC(=O)CCC(=O)N([O-])CCCCCNC(=O)CCC(=O)N([O-])CCCCCN.[Fe+3] [Ferrioxamine],MRI contrast enhancement of breast tumor in liver,[5],only very slight or nonexistent
same,R1 (T1 relaxivity),[6],1.5-1.8 [mmol.sec]^-1 and 1.6-1.8 [mmol.sec]^-1 and 1.6 (mmol.sec)^-1
same,"MRI enhancement of infarct, active without carrier",[7],no detectible enhancement
same,"MRI enhancement of infarct, active without carrier",[7]; listed as Ferrioxamine Agent Alone,no detectable enhancement
same,staining positivity for iron,[8],complete absence of staining positivity
dermatan sulfate,inhibition of antithrombin III,[9],neither dermatan sulfate nor its 8-12 unit fragment inhibits
O=C([O-])CN(CCN(CC(=O)[O-])CC(=O)O)CCN(CC(=O)[O-])CC(=O)O.[Gd+3] [Gd:DTPA],in vitro R1,[10],4.0-4.3 [mmol.sec]^-1
same,t1/2 at the site,[11],12 to 20 min
CC(=O)N(O)CCCCCNC(=O)CCC(=O)N(O)CCCCCNC(=O)CCC(=O)N(O)CCCCCN [deferoxamine],solubility,[12],320 mg/mL
CC[C@]1(O)C[C@H]2CN(CCc3c([nH]c4ccccc34)[C@@](C(=O)OC)(c3cc4c(cc3OC)N(C=O)[C@H]3[C@@](O)(C(=O)OC)[C@H](OC(C)=O)[C@]5(CC)C=CCN6CC[C@]43[C@@H]65)C2)C1 [Vincristine],retention inside 500 MW cutoff dialysis bag,[2],not the drug alone
